Target: human PD-L1 / Human PD-1 (Homo sapiens (Human), UniProt Q9NZQ7)
Test: Enzyme-Linked Immunosorbent Assay (ELISA), PD-1/PD-L1 binding
Conditions: plate-coated human PD-L1, biotinylated human PD-1, absorbance at 450 nm
Description: 96 Well plates were coated with 1 μg/mL of human PD-L1 (obtained from R&D) in PBS overnight at 4° C. The wells were then blocked with 2% BSA in PBS (W/V) with 0.05% TWEEN-20 for 1 hour at 37° C. The plates were washed 3 times with PBS/0.05% TWEEN-20 and the compounds were serial diluted (1:5) in dilution medium and added to the ELISA plates. Human PD-1 and biotin 0.3 μg/mL (ACRO Biosystems) were added and incubated for 1 hour at 37° C. then washed 3 times with PBS/0.05% TWEEN-20. A second block was performed with 2% BSA in PBS (W/V)/0.05% TWEEN-20 for 10 min at 37° C. and was washed 3 times with PBS/0.05% TWEEN-20. Streptavidin—HRP was added for 1 hour at 37° C. then washed 3 times with PBS/0.05% TWEEN-20. TMB substrate was added and reacted for 20 min at 37° C. A stop solution (2 N aqueous H2SO4) was added. The absorbance was read at 450 nm using a micro-plate spectrophotometer.
Compounds in Table 1 were prepared by methods as described in the Examples and evaluated according to the assay above.

Chain of human PD-L1 / Human PD-1 (Q9NZQ7 19-239): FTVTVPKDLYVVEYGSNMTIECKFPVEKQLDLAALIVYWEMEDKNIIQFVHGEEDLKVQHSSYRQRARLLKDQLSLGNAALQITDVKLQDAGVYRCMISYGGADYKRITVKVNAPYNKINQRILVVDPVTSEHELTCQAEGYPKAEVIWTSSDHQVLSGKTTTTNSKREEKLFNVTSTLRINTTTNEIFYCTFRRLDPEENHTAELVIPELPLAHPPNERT

Cc1c(COc2cc3c(cc2Cl)CO[C@H](C(=O)O)CCNC(=O)c2cncc(c2)CN3)cccc1-c1ccccc1 [Compound 1.009]
IC50: 0.5 to 20 µM
